Publication PMC7381267, “A Bromodomain-Containing Protein 4 (BRD4) Inhibitor Suppresses Angiogenesis by Regulating AP-1 Expression” (Frontiers in Pharmacology, 2020)
Read-outs that look alike come from different tables or passages of the source.

What was measured:
[1] = tested on: c-jun and c-fos (AP-1) in HUVECs; assay: Immunoblot of AP-1 components; format: cell-based, human; conditions: 48 h
Description: Then, the proteins of these cells were extracted using RIPA buffer and separated by 10% (w/v) sodium dodecyl sulphate-polyacrylamide gel electrophoresis (SDS-PAGE). The separated proteins were transferred onto a polyvinylidene fluoride (PVDF) membrane (Millipore, MA, USA) and blocked using 5% (w/v) non-fat powder milk at room temperature. Next, the membranes were incubated in the relative primary antibody and horseradish peroxidase (HRP)-conjugated secondary antibodies. Then, the Image Quant LAS 4000 system (GE Healthcare, Waukesha, WI, USA) was used for the direct visualization of the membranes. The protein bands were densitometrically quantified using Quantity-One protein analysis software (Bio-Rad Laboratories, Hercules, CA, USA). The relative expression of the proteins was normalized to the expression of glyceraldehyde-3-phosphate dehydrogenase (GAPDH).
[…]. […] […].

chick embryo YSM vessels = assay: Chick embryo yolk sac membrane (YSM) anti-angiogenesis assay; format: in vivo; conditions: 100 μM, 24 h; for Blood vessel density and number of blood vessels compared with DMSO: YSM of 3-day-old chick embryos
Description: On the third day of incubation, the well-developed live chicken embryos were carefully transferred into sterilized dishes, and the chick embryo vessels were arranged to face upward. Color marked silastic rings were symmetrically placed onto the top of the vessel regions of the yolk sac membrane and incubated for 3 h in the incubator. Then, 100 μM BET family member inhibitors or DMSO (dissolved in 30 µl of PBS, pH 7.4) was added into the center of the rings and cultured in the incubator for 24 h. Images of the vessels in the silastic rings were captured at 0 and 24 h, respectively. The images were quantitatively analyzed by Image-Pro Plus 6.0, and then the number of blood vessels 24 h after drug treatment and the MVD at 0 and 24 h were quantified using IPP 6.0. The growth rate in the DMSO-treated silica gel circle was considered to be one.

[2] = tested on: chick embryo CAM vasculature; assay: Chick embryo chorioallantoic membrane (CAM) anti-angiogenesis assay; format: in vivo; conditions: 48 h; for Inhibitory effect on microvessel density (MVD) / Inhibitory effect on MVD compared with (+)-JQ1 / Positive Ratio: 50 μg/ml; for Inhibitory effect on microvessel density (MVD) / Inhibition of MVD compared to DMSO / Inhibitory effect on MVD compared with (+)-JQ1 / Inhibitory efficacy on MVD compared with (+)-JQ1: CAM; for Inhibitory effect on microvessel density (MVD) / Inhibitory effect on MVD compared with (+)-JQ1: Figure 1C; for Inhibition of MVD compared to DMSO: 25, 50 and 100 μM, Figure 2F; for Anti-angiogenic activity, egg number 1: egg 1; for Anti-angiogenic activity, egg number 3: egg 3; for Anti-angiogenic activity, egg number 5: egg 5; for Inhibitory efficacy on MVD compared with (+)-JQ1: at each of 25, 50 and 100 μM; for Positive Ratio: embryos with ++ and +++ compared with total number of embryos; for Anti-angiogenic activity, egg number 2: egg 2; for Anti-angiogenic activity, egg number 4: egg 4
Description: Fertilized white leghorn chicken eggs were obtained from the Avian Farm of South China Agriculture University (Guangzhou, China) and the shells were cleaned with 1% geramine. […] A small window (10 × 10 mm^2) was cut above the air chamber of egg while the chick embryo was growing through the ninth day. BET family member inhibitors or DMSO (dissolved in 30 µl of phosphate-buffered saline [PBS, pH 7.4]) were placed directly onto the live chick embryo CAM through the window at the indicated concentrations and incubated for 48 h. Then, the eggshells were cut carefully along the axis of the median line, and the content was discarded. The CAM vasculature around the eggshell windows was observed and photographed under a stereomicroscope (Olympus SZX16). The microvessel density (MVD) was calculated as the percentage of blood vessel area in the total drug-treated area using the Image-Pro Plus 6.0 software (IPP 6.0, Media Cybernetics, Inc., Rockville MD, USA).
The effects of all these selected compounds on angiogenesis were first determined through use of the chick embryo CAM model. […] Each of the compounds (50 μg/ml) was added to the CAM of 9-day-old chick embryos for 48 h. The CAMs of chick embryos were photographed, and the inhibition ratio indicating angiogenesis was calculated and analyzed. […] An inhibitory effect observable but not obvious on the generation of third-grade vessels was indicated by “+”; an obvious medium-level inhibitory effect on secondary vessels was indicated by “++”; and an obvious potent inhibitory effect on primary blood vessels was indicated by “+++”.

HUVECs [3] = assay: Tube formation assay; conditions: 8.5 μM, 48 h pretreatment, then 5 h on Matrigel
Description: The circumference of the formed tubes was measured under an inverted light microscope.

HUVECs [4] = assay: Cell viability by CCK-8 assay; format: cell-based, human; conditions: for Cell viability compared with DMSO or (−)-JQ1: 8.5 μM, 96 h; for IC50: Homo sapiens, HUVEC, read-out: 50% inhibition concentration of cell viability
Description: Cell viability after BET family member inhibitor treatment was evaluated by CCK-8 assay. HUVECs were seeded in 96-well plates at a density of 2,000 cells/well. Twenty-four hours later, the BET family member inhibitors, (−)-JQ1 (negative control drug) and DMSO (solvent group) were added at the indicated concentrations. […] The absorbance was evaluated at 450 nm to determine cell viability.
Furthermore, (−)-JQ1 was employed as a negative control, and DMSO was employed as a solvent control. […].

BRD2 BD1 = target: T1, BRD2 BD1 (Homo sapiens, UniProt P25440); assay: TR-FRET assay, BRD2 BD1; format: binding
T1 construct: purchased Cayman Chemical
T1 sequence (P25440 74-180 limits assumed): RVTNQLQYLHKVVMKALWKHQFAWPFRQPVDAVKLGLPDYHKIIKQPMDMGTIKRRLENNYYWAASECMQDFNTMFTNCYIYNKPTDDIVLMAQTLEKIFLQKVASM
Description: (§1) The specificity of the designed and synthesized compounds for BRD4 was also evaluated through comparison with those for BRD2.
(§2) As acetylated histone peptides are known substrates for bromodomain-containing proteins, we initially screened the complexes for their ability to modulate the protein–protein interaction between acetylated lysine and BET family members. […] Then, the IC50 of the compounds that prevent BRD4 (BD1 or BD2)/BRD2 (BD1 or BD2) and acetylated histone interactions was calculated by TR-FRET assay in vitro.

BRD2 BD2 = target: T2, BRD2 BD2 (Homo sapiens, UniProt P25440); assay: TR-FRET assay, BRD2 BD2; format: binding
T2 construct: purchased Cayman Chemical
T2 sequence (P25440 344-453 limits assumed): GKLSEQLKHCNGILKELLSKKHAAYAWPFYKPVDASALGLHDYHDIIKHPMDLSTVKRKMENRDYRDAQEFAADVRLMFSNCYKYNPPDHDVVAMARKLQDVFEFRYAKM
Description: as §1, §2

BRD4 BD1 = target: T3, BRD4 BD1 (Homo sapiens, UniProt O60885); assay: TR-FRET assay, BRD4 BD1; format: binding
T3 construct: purchased Cayman Chemical
Description: as §1, §2

BRD4 BD2 = target: T4, BRD4 BD2 (Homo sapiens, UniProt O60885); assay: TR-FRET assay, BRD4 BD2; format: binding
T4 construct: purchased Cayman Chemical
Description: as §1, §2

H3K122Ac = tested on: H3K122Ac; set-up: method as in Liu et al., 2020; conditions: ref Liu et al., 2020; cited from earlier work
[5] = 50 μg/ml on CAM of 9-day-old chick embryos

Q: What does the source list for Cc1sc2c(c1C)C(c1ccc(Cl)cc1)=N[C@@H](CC(=O)OC(C)(C)C)c1nnc(C)n1-2 [(+)-JQ1 (1), reference compound]?
A: Expression of c-jun compared with DMSO [1]: significantly inhibited the expression of c-jun; Phosphorylation of c-jun and c-fos compared with DMSO [1]: significantly inhibited; Blood vessel density and number of blood vessels compared with DMSO (chick embryo YSM vessels): significantly reduced; Inhibitory effect on microvessel density (MVD) [2]: most impressive inhibitory effect on MVD; Inhibition of MVD compared to DMSO [2]: significantly inhibited MVD in a concentration-dependent manner; Tube formation (tube circumference) compared with DMSO (HUVECs [3]): reduction in tube circumference; Cell viability compared with DMSO or (−)-JQ1 (HUVECs [4]; HUVECs): significantly suppressed cell viability; IC50 (HUVECs [4]): 5000 nM

Q: With COc1cc(OC)c2c(=O)cc(-c3ccc(OCC(O)CN4CCCCC4)cc3)oc2c1 (stereo not drawn) [HJC5100(16)] as the compound, how does the “Anti-angiogenic activity, egg number 1” value [2, 5] read?
A: +

Q: And the “Anti-angiogenic activity, egg number 3” value [2, 5]?
A: +

Q: With Cc1cc(/N=N/c2ccc(S(=O)(=O)Nc3ccccn3)cc2)c(N)cc1O [MS436 (3), reference compound] as the compound, how does the IC50 (BRD2 BD1) read?
A: 797 nM

Q: What about the “Anti-angiogenic activity, egg number 5” value [2, 5] of the same compound?
A: +

Q: What about the “Inhibitory effect on MVD compared with (+)-JQ1” value [2] of the same compound?
A: better than that of the (+)-JQ1 positive control

Q: What about the “Inhibitory effect on microvessel density (MVD)” value (from here on “Inhibitory effect … (MVD)”) [2] of the same compound?
A: most impressive inhibitory effect on MVD

Q: And the “Inhibition of MVD compared to DMSO” value [2]?
A: significantly inhibited MVD in a concentration-dependent manner

Q: What about the “Inhibitory efficacy on MVD compared with (+)-JQ1” value [2] of the same compound?
A: stronger inhibitory efficacy than (+)-JQ1

Q: What about the IC50 (BRD2 BD2) of the same compound?
A: 846 nM

Q: For CC(C)(C)c1cc(-c2nnc(-c3cc(F)c(F)c(F)c3)o2)no1 [ZL0164(4)], which “Anti-angiogenic activity, egg number 5” value [2, 5] is on record?
A: +

Q: What about the “Positive Ratio” value [2] of the same compound?
A: 2/5

Q: Which “Anti-angiogenic activity, egg number 2” value [2, 5] does the source give for Cc1cc(N=Nc2ccc(S(=O)(=O)N3CCCC3)cc2)c(N)cc1O [ZL0452(5)] here?
A: +

Q: What about the “Anti-angiogenic activity, egg number 4” value [2, 5] of the same compound?
A: +

Q: And the “Positive Ratio” value [2]?
A: 1/4

Q: What does the source list for Cc1cc(N=Nc2ccc(S(=O)(=O)NC3CCCC3)cc2)cc(C)c1O [ZL0453(6)]?
A: Anti-angiogenic activity, egg number 1 [2, 5]: +; Anti-angiogenic activity, egg number 4 [2, 5]: +; Anti-angiogenic activity, egg number 5 [2, 5]: +; Positive Ratio [2]: 1/5

Q: With Cc1cc(/N=N/c2ccc(S(=O)(=O)NC3CCCC3)cc2)c(N)cc1O [ZL0454 (2)] as the compound, how does the “Anti-angiogenic activity, egg number 5” value [2, 5] read?
A: +

Q: And the “Inhibitory effect … (MVD)” value [2]?
A: most impressive inhibitory effect on MVD

Q: And the “Inhibition of MVD compared to DMSO” value [2]?
A: significantly inhibited MVD in a concentration-dependent manner

Q: And the “Inhibitory efficacy on MVD compared with (+)-JQ1” value [2]?
A: stronger inhibitory efficacy than (+)-JQ1

Q: For COc1cc(OC)c2c(=O)cc(-c3cc(C)c(OC[C@H](O)CN4CCCCC4)c(C)c3)oc2c1 [ZL0513 (7)], which “Selectivity window to BRD4 over BRD2” value (BRD4 BD1; BRD4 versus BRD2) is on record?
A: 10 fold

Q: And the IC50 (BRD4 BD1; TR-FRET)?
A: 67 nM

Q: And the IC50 (BRD4 BD2)?
A: 684 nM

Q: And the IC50 (BRD2 BD1)?
A: 791 nM

Q: What about the “Expression of c-jun compared with DMSO” value [1] of the same compound?
A: significantly inhibited the expression of c-jun

Q: And the “Phosphorylation of c-jun and c-fos compared with DMSO” value [1]?
A: significantly inhibited

Q: And the “Inhibition efficacy on angiogenesis in YSM compared with (+)-JQ1” value (chick embryo YSM vessels)?
A: significantly higher than that of (+)-JQ1 (1) treatment

Q: And the “Blood vessel density and number of blood vessels compared with DMSO” value (chick embryo YSM vessels)?
A: significantly reduced

Q: What about the “Effect on poly(I:C)-induced H3K122Ac” value (H3K122Ac) of the same compound?
A: block poly(I:C)-induced H3K122Ac

Q: And the “Anti-angiogenic activity, egg number 4” value [2, 5]?
A: +

Q: And the “Inhibitory effect on MVD compared with (+)-JQ1” value [2]?
A: better than that of the (+)-JQ1 positive control

Q: And the “Inhibitory effect … (MVD)” value [2]?
A: most impressive inhibitory effect on MVD

Q: What about the “Positive Ratio” value [2] of the same compound?
A: 4/5

Q: What about the “Inhibition of MVD compared to DMSO” value [2] of the same compound?
A: significantly inhibited MVD in a concentration-dependent manner

Q: And the “Inhibitory efficacy on MVD compared with (+)-JQ1” value [2]?
A: stronger inhibitory efficacy than (+)-JQ1

Q: And the “Tube formation (tube circumference) compared with DMSO” value (HUVECs [3])?
A: reduction in tube circumference

Q: What about the IC50 (BRD2 BD2) of the same compound?
A: 845 nM

Q: And the “Cell viability compared with DMSO or (−)-JQ1” value (HUVECs [4]; HUVECs)?
A: significantly suppressed cell viability

Q: And the IC50 (HUVECs [4]; HUVECs, CCK-8, concentration range 0.3 to 15 μM)?
A: 8500 nM

Q: For Cc1cc(N=Nc2ccc3c(c2)CCC(=O)N3)c(N)cc1O [ZL0518(8)], which “Anti-angiogenic activity, egg number 6” value ([2]; 50 μg/ml on CAM of 9-day-old chick embryos, egg 6) is on record?
A: +

Q: What about the “Positive Ratio” value [2] of the same compound?
A: 1/3

Q: Which “Positive Ratio” value [2] does the source give for COc1cc(OC)c2c(=O)cc(-c3ccc(OCC4CO4)cc3)oc2c1 (stereo not drawn) [ZL0519 (9)] here?
A: 3/4

Q: For COC(=O)C1CCCN1S(=O)(=O)c1ccc(NC(=O)c2ccc(C(F)(F)F)cc2)cc1 (stereo not drawn) [ZL0520(10)], which “Anti-angiogenic activity, egg number 1” value [2, 5] is on record?
A: +

Q: What about the “Anti-angiogenic activity, egg number 4” value [2, 5] of the same compound?
A: +

Q: What about the “Positive Ratio” value [2] of the same compound?
A: 1/5

Q: What does the source list for Cc1ccc(S(=O)(=O)OC[C@@H]2CCCN2S(=O)(=O)c2ccc(NC(=O)Nc3ccc(C(F)(F)F)cc3)cc2)cc1 [ZL0586(12)]?
A: Anti-angiogenic activity, egg number 2 [2, 5]: +; Anti-angiogenic activity, egg number 3 [2, 5]: +; Anti-angiogenic activity, egg number 5 [2, 5]: +; Positive Ratio [2]: 2/5

Q: For O=C(Nc1ccc(C(F)(F)F)cc1)N1CCN(c2ccc(O)cc2)CC1 [ZL0589(14)], which “Anti-angiogenic activity, egg number 5” value [2, 5] is on record?
A: +

Q: And the “Positive Ratio” value [2]?
A: 2/5

Q: Which “Anti-angiogenic activity, egg number 3” value [2, 5] does the source give for N#CC(=NNc1ccc2c(c1)CCC(=O)N2)C(=O)c1ccc(OC(F)(F)F)cc1 [ZL0593(15)] here?
A: +

Q: What about the “Positive Ratio” value [2] of the same compound?
A: 3/5
